Like-named read-outs stand apart in the source and are kept apart here.
Columns and labels:
MMP-13 = MMP-13 ELISA on supernatants of TNF-α-treated chondrogenic pellets; type: cell-based, human; settings: for Concentration inhibiting MMP-13: > = failed to inhibit up to highest concentration tested
[1] = system: Normal human articular chondrocytes; assay: Cytotoxicity to chondrogenic pellets (CellTiter-Blue)
Protocol: Differentiated chondrogenic pellets were used both to test the ability of drugs to block MMP-13 activity and to test for drug toxicity. […] Supernatants were collected and analyzed for MMP-13 using an enzyme-linked immunosorbent assay (GE Healthcare Life Sciences, Little Chalfont, UK). Cytotoxicity to pellets was assessed using CellTiter-Blue (Promega).

SW982 = assay: Synovial toxicity (CellTiter-Glo), with or without TNF-α
Protocol: Viability was measured with the CellTiter-Glo luminescent viability assay (Promega). […] To more accurately predict the effects of the drugs on osteoarthritic synovium, cells were tested with or without TNF-α (20 ng/ml; BioSource).
In Vitro Toxicity Testing with a Synovial Cell Line
Compounds were tested for synovial toxicity using SW982 cells alone or in the presence of TNF as

NF-κB = assay: TNF-α-stimulated NF-κB dual luciferase reporter assay in HeLa cells; type: cell-based
Protocol: NF-κB activity was assessed using a previously described dual plasmid reporter system. HeLa cells were transfected with NF-κB luciferase (Stratagene Products Division, Agilent Technologies, La Jolla, CA, USA) and pRLuc-N3 (PerkinElmer, Waltham, MA, USA) at an 8:1 ratio, respectively, in triplicate. […] NF-κB activity was measured 5 h later with a Dual-Glo Luciferase Assay (Promega, Madison, WI, USA) and an Omni plate reader (BMG Labtech, Cary, NC, USA). The ratio of firefly luciferase luminescence (NF-κB reporter) to Renilla luciferase luminescence (control) was normalized for the number of viable transfected cells. Data are reported as a ratio of activity of viable treated cells over the activity of cells not exposed to TNF-α or drug (fold stimulation above basal untreated levels of activity). The viability of HeLa cells with and without drug was also measured using a CellTiter-Glo luminescent viability assay (Promega). […]
NF-κB activity was assessed in HeLa cells that were transiently transfected with two reporter constructs as described in the manuscript. Agents were tested for their ability to block TNF- […]
Expression of the luciferase from the Renilla construct was used as a measure of viability, which was confirmed with a cytotoxicity assay (see later section).

RAW 264.7 cells = assay: RANKL-mediated osteoclastogenesis / matrix resorption (Osteologic) assay; type: cell-based, murine; settings: for minimal effective concentration: Mus musculus, RAW264.7, 168 h, read-out: Lowest inhibitory concentration, matrix resorption
Protocol: RAW 264.7 cells (American Type Culture Collection [ATCC], Manassas, VA, USA), a murine monocytic cell line that differentiates in the presence of RANKL, was used for measurements of osteoclastogenesis and osteoclast activity. Cells were amplified on nonadherent culture substratum in high-glucose Dulbecco’s modified Eagle’s medium (DMEM) containing 10 % fetal bovine serum (FBS) and penicillin-streptomycin in a 37 °C, 5 % CO2, humidified incubator and were passaged by manual dissociation. […] Plates were subsequently rinsed, bleached, dried, and analyzed for matrix degradation using a Nikon COOLSCOPE (Nikon Instruments, Melville, NY, USA). Matrix resorption was quantified using EclipseNet (Nikon Instruments)/Visiopharm (Visiopharm, Hørsholm, Denmark) software (see Additional file 1).
In Vitro Osteoclastogenesis
Osteoclastogenic activity was measured using BD osteologic plates and quantitation of the degree of bone matrix digestion on the plate surface. Images from the BD Osteologic assay used to […]
left pane depicts an example of a control well after removal of cells from matrix. Pseudocoloring of matrix (blue) and pits (green) is shown in the far right pane. A transparent overlay of the two images is shown in the center.
Figure 5 - Measurement of drug effects on osteoclastogenesis and osteoclast activity.
Comparisons were made between RANKL treated control wells and wells treated with both RANKL and […]
Agents were initially tested either during differentiation or post differentiation in the bone assay […]
(e.g., Figure 2, Sulfazalazine). […]
indicated (*/**: p < 0.05/0.01, unpaired t-test versus RANKL control). […]

[2] = Comparison of in vitro screens: overlapping effective and nontoxic range; settings: for Overlapping effective and nontoxic range: inhibits with minimal or no toxicity to synovium or cartilage, overlapping range if effective in more than one assay;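 on all read-outs here: compares non-toxic ranges in synovial cells and chondrocytes with effective ranges against NFkB, MMP-13 and osteoclasts, giving their overlap as the predicted efficacy range in uM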
HeLa cells = assay: HeLa cell viability (CellTiter-Glo)
Protocol: NF-κB activity was assessed using a previously described dual plasmid reporter system. HeLa cells were transfected with NF-κB luciferase (Stratagene Products Division, Agilent Technologies, La Jolla, CA, USA) and pRLuc-N3 (PerkinElmer, Waltham, MA, USA) at an 8:1 ratio, respectively, in triplicate. […] NF-κB activity was measured 5 h later with a Dual-Glo Luciferase Assay (Promega, Madison, WI, USA) and an Omni plate reader (BMG Labtech, Cary, NC, USA). The ratio of firefly luciferase luminescence (NF-κB reporter) to Renilla luciferase luminescence (control) was normalized for the number of viable transfected cells. Data are reported as a ratio of activity of viable treated cells over the activity of cells not exposed to TNF-α or drug (fold stimulation above basal untreated levels of activity). The viability of HeLa cells with and without drug was also measured using a CellTiter-Glo luminescent viability assay (Promega).
In Vitro Hela Cell Drug Toxicity Testing
Potential drug toxicity was measured using a CTG assay and HeLa cells (Promega). Drugs not tested in
this assay were tested in either of the in vitro toxicity assays already presented (synovial or chondrocyte
Table 3- Drug toxicity measured using a CTG assay and HeLa cells.

[3] = published half-life; cited from earlier work

Compound | Non-toxic range (Chondrocyte) [1] | Non-toxic range (Synovial) (SW982) | Effective range against Osteoclasts (RAW 264.7 cells) | Non-toxic & predicted range of efficacy [2] | Overlapping effective and nontoxic range [2] | t 1/2 [3] | further results
Nc1cc(-c2ccncc2)c[nH]c1=O [Amrinone] | 1.25 to 80 µM | 1.25 to 40 µM | Not effective | ≥ 80 µM | 80 µM |  | MMP-13, effective concentration (MMP-13; number printed in the class column): 80; Effective range against NFkB (NF-κB): None
CC[C@@H]1/C=C(\C)C[C@H](C)C[C@H](OC)[C@H]2O[C@@](O)(C(=O)C(=O)N3CCCC[C@H]3C(=O)O[C@H](/C(C)=C/[C@@H]3CC[C@@H](O)[C@H](OC)C3)[C@H](C)[C@@H](O)CC1=O)[C@H](C)C[C@@H]2OC [Ascomycin] | 0.625 to 40 µM | 625000 to 4e+07 µM |  | 1.25 to 40 µM | 1.25 to 40 µM |  | Effective range against MMP-13 (MMP-13): Not effective; Concentration inhibiting MMP-13 (MMP-13): > 40 µM; minimal effective concentration (RAW 264.7 cells): 0.01 µM
Cc1ccc(S(=O)(=O)/C=C/C#N)cc1 [BAY-117082, BAY-11-7082] | 0.18 to 1.5 µM | 3 to 6 µM | ≥ 3 µM | None | 6 to 192 µM |  | Effective range against MMP-13 (MMP-13): ≥ 0.75 µM; Concentration with notable toxicity (SW982): 12 µM; Effective against NF κβ (p<0.05) (NF-κB): 12 to 96 µM; Effective range against NFkB (NF-κB): 12 to 96 µM; Non-toxic concentrations (HeLa cells): 6 to 96 µM
CC(=O)Oc1cccc2c1C(=O)c1c(OC(C)=O)cc(C(=O)O)cc1C2=O [Diacerein] | All toxic | 1.5 to 54.3 µM |  | None | Toxic to chondrocytes |  | Non-toxic concentrations (HeLa cells; (TNF), i.e. without TNF): 0 to 1.375e+07 µM; Non-toxic concentrations (HeLa cells; +TNF): 0 to 2.275e+07 µM; Toxic concentrations (p<0.05) (HeLa cells; with TNF): 50 to 110 M
CNC(=O)[C@H](Cc1c[nH]c2ccccc12)NC(=O)[C@@H](CC(=O)NO)CC(C)C [GM6001] | 0.4 to 25 µM | 0.33 to 25 µM | Not effective |  |  |  | MMP-13, effective concentration (MMP-13): 25
O=C(c1ccccc1)c1ccc2n1CCC2C(=O)O (centres unmarked) [Keterolac] | 3.17 to 200 µM | 0.625 to 40 µM | Not effective | ≥ 12.5 µM |  |  | 
CC[C@@H]1/C=C(\C)C[C@H](C)C[C@H](OC)[C@H]2O[C@@](O)(C(=O)C(=O)N3CCCC[C@H]3C(=O)O[C@H](/C(C)=C/[C@@H]3CC[C@H](Cl)[C@H](OC)C3)[C@H](C)[C@@H](O)CC1=O)[C@H](C)C[C@@H]2OC [Pimecrolimus] | 0.625 to 40 µM | 0.625 to 40 µM |  | 2.5 to 40 µM | 2.5 to 20 µM | Ascomycin macrolactam derivative Like tacrolimus, a calcineurin inhibitor that inhibits release of inflammatory cytokines [97] t 1/2 = 30–100 h | Effective range against MMP-13 (MMP-13): Not effective; Concentration inhibiting MMP-13 (MMP-13): > 40 µM; minimal effective concentration (RAW 264.7 cells): 0.01 µM
Oc1ccc(/C=C/c2cc(O)cc(O)c2)cc1 [Resveratrol] | 3.12 to 200 µM | 3.12 to 100 µM |  |  |  | Suppresses IL-1β signaling and IL-1β-stimulated apoptosis in osteoarthritis [98] A natural inhibitor of NF-κB [99] t 1/2 = 1–3 h | Effective range against NFkB (NF-κB): Not effective; Lowest inhibitory concentration, matrix resorption (RAW 264.7 cells): 6.25 µM
O=C(O)c1cc(O)c2c(c1)C(=O)c1cccc(O)c1C2=O [Rhein] | 0.625 to 40 µM | 625000 to 4e+07 µM | Not effective | 40 µM |  | Anthraquinone-active metabolite of diacerein Reduces proliferation of chondrocytes and synoviocytes; inhibits NF-κB activation in vitro [101] t 1/2 = 4.3 h | Effective against NF κβ (p<0.05) (NF-κB): Only at toxic; Non-toxic concentrations (HeLa cells): 2.5 to 20 µM
O=C(O)c1cc(/N=N/c2ccc(S(=O)(=O)Nc3ccccn3)cc2)ccc1O [Sulfasalazine] | 12.5 to 800 µM | 12.5 to 400 µM |  | 50 to 400 µM | 150 to 1600 µM | NSAID t 1/2 = 5 – 10 h | 
CC1=C(CC(=O)O)c2cc(F)ccc2/C1=C\c1ccc([S+](C)[O-])cc1 (centres unmarked) [Sulindac] | 4.35 to 280 µM | 4.4 to 280 µM |  | 8.8 to 280 µM | 280 µM | NSAID t 1/2 = 7.8 h | Non-toxic concentrations (HeLa cells): 8.75 to 70 µM
CC1(C)O[C@@H]2C[C@H]3[C@@H]4CCC5=CC(=O)C=C[C@]5(C)[C@@]4(F)[C@@H](O)C[C@]3(C)[C@]2(C(=O)CO)O1 [Triamcinolone acetonide] |  | 0.7 to 250 µM |  | 31.25 to 500 µM | 250 to 500 µM | Steroid t 1/2 = 88 min | Lowest inhibitory concentration, matrix resorption (RAW 264.7 cells): 250 µM
COc1ccc(CCN(C)CCCC(C#N)(c2ccc(OC)c(OC)c2)C(C)C)cc1OC (centres unmarked) [Verapamil] |  |  | Not effective |  |  |  | 
Epigallocatechin-3-gallate [EGCG] | 690000 to 4.4e+07 µM | 690000 to 4.4e+07 µM | None? | 5.5 to 44 µM | 5.5 to 44 µM |  | Effective range against MMP-13 (MMP-13): ≥ 5.5 µM; Effective range against NFkB (NF-κB): 5.5 to 88 µM
